From US20180132458A1, “TRANSGENIC ANIMAL MODELS FOR CYSTIC FIBROSIS” (THE REGENTS OF THE UNIVERSITY OF MICHIGAN, priority 2016, published 2018)

Tested on: forskolin/IBMX-stimulated CFTR Cl current in ileum tissue
Experiment: Short-circuit current of freshly excised ileum tissue measured by Ussing chamber
Assay type: cell-based, rabbit
Conditions: CFTR+/+ rabbits
Experimental: (Panel A) Immunocytochemistry of lungs and small intestines from CFTR+/+ and CFTR−/− rabbits. Red: CFTR; blue: nuclei. (Panel B) Short circuit current measurements of small intestines from CFTR+/+ and CFTR−/− rabbits after treated 1 μM indomethcin.
CFTR expression in the airways and in the small intestines of wild-type and CFTR−/− rabbits was evaluated by immunoflorescence. […] Next, CFTR Cl secretion in these animals were examined. Ileum tissues from CFTR+/+ and CFTR−/− rabbits were used for CFTR functional assay. Short-circuit currents from these tissues with muscle layer on serosal side removed were measured by Ussing chamber. […] This situation was also observed in ferrets and pigs.

Structure (SMILES)	forskolin-stimulated current blocked (GlyH101 at 10 μM)	forskolin-stimulated current blocked
O=C(CNc1ccc2ccccc2c1)N/N=C/c1cc(Br)c(O)c(Br)c1O [GlyH101]	Only a small fraction	
CCCCNc1cc(C(=O)O)cc(S(N)(=O)=O)c1Oc1ccccc1 [bumetanide]		more than 50%
